The source of these data is PubChem BioAssay (NCI).

Structures are written as SMILES. Where “and” joins values, the source holds several entries; their conditions need not be identical. Identical values can stand only once.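 These data come from cells grown in 96-well plates and exposed to compound for 48 hours at five concentrations. GI50: concentration for 50% inhibition of growth. TGI: concentration producing complete growth inhibition.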

Test in all cases: growth of human tumour cells (NCI), 48 h
Assay [1] concerns BT-549 breast.
The subject of assay [2] is HS 578T breast.
In assay [3] the test system is IGROV1 ovarian.
Assay [4] concerns SF-268 CNS.
The test system of assay [5] is SF-295 CNS.
Assay [6] deals with SK-MEL-28 melanoma.
Assay [7] relates to SK-OV-3 ovarian.
Assay [8] deals with SR leukemia.
Assay [9] has as its system SW-620 colon.
Assay [10] deals with UACC-62 melanoma.

As to `COC1=CC(=O)c2nc(Cl)ccc2C1=O`, the GI50 in assay [1] was 2.54 µM; in [2], 2.22 µM; in assay [3], 1.86 µM; in assay [4], 1.65 µM; in [5], 1.69 µM; in assay [6], 1.88 µM. The GI50 in [7] is 11 µM; in assay [8] it was 3.17 µM; in assay [9], 1.79 µM; in assay [10], 1.77 µM. In addition, the TGI was 6.42 µM in assay [1]; 6.18 µM in assay [2]; 3.54 µM in assay [3]; 3.19 µM in assay [4]; 3.51 µM in assay [5]; 3.47 µM in assay [6]. The TGI in [7] was 23.3 µM; in assay [8], above 100 µM; in assay [9] it was 3.3 µM; in [10] it was 3.45 µM.

As to `CCCCCC[C@H](C)NC(=O)c1ccc(Nc2nc3ccccc3c3occc23)cc1`, the GI50 in assay [1] was 2.79 µM; in [2], 4.68 µM; in assay [3] it was 2.46 µM; in [4] it was 6.39 µM; in assay [5], 2.62 µM; in [6] it was 5.41 µM. For the same compound, the GI50 in assay [7] is 5.11 µM; in assay [8] it was 6.65 µM; in assay [9] it was 3.57 µM; in assay [10], 16 µM. Further, the TGI in assay [1] is 6.54 µM; in assay [2], 67.6 µM; in assay [3], 5.77 µM; in assay [4] it was above 100 µM; in assay [5], above 100 µM; in [6] it was above 100 µM. For the same compound, the TGI in assay [7] was above 100 µM; in assay [8], 55.5 µM; in assay [9], above 100 µM; in assay [10], 35.5 µM.

`COc1ccc(N(C)c2nc(Cl)nc3cnn(C)c23)cc1`: the GI50 was 0.0207 µM in assay [1]; below 0.01 µM in [2]; below 0.0189 µM in assay [3]; below 0.0112 µM in [4]; below 0.01 µM in [5]; 12.8 µM in assay [6]. Also, the GI50 in [7], in assay [8], in assay [9] and in assay [10] was below 0.01 µM in each case. In addition, the TGI in assay [1] is above 71.6 µM; in [2], above 100 µM; in [3] it was above 100 µM; in assay [4], above 100 µM; in assay [5], above 100 µM; in assay [6], above 100 µM. Moreover, the TGI in assay [7], in assay [8], in assay [9] and in assay [10] was above 100 µM each time.

Regarding `COc1cc(/C=C/C(=O)c2c(C)nc3ccccc3c2C)ccc1OCCCN1CCN(C(=O)c2ccco2)CC1`, the GI50 was 4.86 µM in assay [1]; 12 µM in assay [2]; 6.7 µM in assay [3]; 10.9 µM in [4]; 8.42 µM in [5]; 12.7 µM in assay [6]. The GI50 in assay [7] was 16.1 µM; in assay [8] it was 2.22 µM; in [9], 6.03 µM; in assay [10], 8.39 µM. For the same compound, the TGI in [1] was found to be 23.3 µM; in [2], 51.8 µM; in assay [3] it was 24.6 µM; in assay [4], 25.8 µM; in assay [5], 25.1 µM; in assay [6], 25.3 µM. Also, the TGI in assay [7] came out at 52 µM; in [8], 7.47 µM; in assay [9], 19.2 µM; in assay [10] it was 21.7 µM.

As to `C/C(=N/Nc1nc(C)cc(=O)[nH]1)C(=O)O`, the TGI in [1], in [2], in [3], in assay [4], in assay [5] and in assay [6] was above 100 µM in each case. Further, the TGI in assay [7], in [8], in assay [9] and in assay [10] was above 100 µM each time.

Regarding `Cc1ccc(OCC2OC(n3cnc4c(Br)nc(Br)nc43)CC2Oc2ccc(C)cc2)cc1` (configuration not stated), the GI50 was 9.96 µM in assay [1]; 14.4 µM and 2.96 µM in assay [2]; 2.71 µM in [3]; 2.22 µM in [5]; 11.2 µM in [7]; 3.02 µM in assay [9]. Moreover, the GI50 in assay [10] is 3.1 µM. The TGI is 20.6 µM and 34.4 µM in assay [1]; 36 µM and 7.18 µM in [2]; 8.86 µM and 9.89 µM in assay [3]; 25.4 µM in assay [4]; 5.28 µM and 25.9 µM in [5]; 10.1 µM in [6]. Also, the TGI is 21.4 µM and > 54.2 µM in assay [7]; 4.67 µM in [8]; 10.1 µM and 12.3 µM in assay [9]; 11.4 µM and 20.6 µM in assay [10].

Regarding `CN(C)CCOC(=O)Nc1nc2ccc(Sc3ccccc3)cc2[nH]1`, the GI50 in [1] was 3.2 µM; in assay [2] it was 4 µM; in [3] it was 6.32 µM; in assay [4], 6.41 µM; in assay [5], 2.96 µM; in assay [6], 9.19 µM. Further, the GI50 was 3.87 µM in assay [7], 0.921 µM in [8], 3.69 µM in [9] and 3.74 µM in [10]. Besides, the TGI in [1] came out at 13.5 µM; in assay [2] it was 28.8 µM; in assay [3], 27.6 µM; in [4], 25.4 µM; in [5], 13.4 µM; in assay [6], 24.3 µM. The TGI in [7] was found to be 23.7 µM; in assay [8], 19.4 µM; in assay [9], 16.3 µM; in assay [10] it was 16.7 µM.

On to `COc1ccc2c(c1OC(C)=O)C1=CC(=O)CCC13CCNC3C2` (configuration not stated), for which the TGI in [1], in assay [2], in [3], in assay [4], in [5] and in assay [6] was above 100 µM throughout. The TGI in [7], in assay [8], in [9] and in assay [10] was above 100 µM each time.
